Patent publication US20160346313A1, “USES OF OLIGOURONATES IN CANCER TREATMENT” (NORWEGIAN UNIVERSITY OF SCIENCE AND TECHNOLOGY, priority 2013, published 2016)

Tested on: Capan-2 human pancreas tumour xenograft
Test: Capan-2 human pancreas tumour xenograft model: tumour weight, with statistical analysis (ANOVA by day, Eav, log scale, exponential growth model)
Assay type: in vivo, Female Athymic Nude mice
Conditions: for Tumour weight, Difference vs Vehicle / Tumour weight, Estimate: Q3Dx4, G-Block IV, gemcitabine IP; for Estimate (mg), tumour weight geometric mean / Ratio vs Vehicle: Gemcitabine 5
Method: Efficacy was assessed by comparison of tumour weights of treated groups with the vehicle control group on Day 11 and 74 and between combination groups and their respective single agents on Day 11 and 74.
G-Block (Lot #PolyG 230712-Dp10, 95%G) was received as a white hygroscopic amorphous powder from NTNU Technology Transfer AS (Trondheim, Norway) and stored desiccated at room temperature until use. NTNU's G-Block was dissolved in MilliQ water to a concentration of 70 mg/ml to be used as the stock solution. This solution was used to deliver a dose of approximately 560 mg/kg in a 200 μl fixed dose. The 70 mg/ml solution was then diluted in 0.9% 150 mM NaCl (B. Braun Medical; Irvine, Calif.) to deliver doses of approximately 200 mg/kg, 75 mg/kg, 25 mg/kg, and 5 mg/kg in a 200 μL fixed dose volume. All dosing calculations assume a 25 g animal. NTNU's G-Block 70 mg/ml stock solution was formulated at the beginning of the study and used for dilutions before each dose, sterile filtered, and stored at 4° C. between doses. All unused dosing mixture was properly disposed of at TD2 after the study ended.
All unused dosing mixture was properly disposed of at TD2 after each dose.
Vehicle control was dosed with a solution of 0.9% 150 mM NaCl at a 10 ml/kg dose volume. Vehicle control was stored at room temperature.
Capan-2 human pancreas tumour xenograft cell line was received from ATCC (Manassas, Va.). Cultures were maintained in McCoy's 5A medium (Hyclone, Logan, Utah) supplemented with 10% fetal bovine serum (Omega Scientific; Tarzana, Calif.), and housed in a 5% CO2 atmosphere. The cultures were expanded in tissue culture flasks at a 1:5 split ratio until a sufficient amount of cells were harvested.
Female Athymic Nude mice (Hsd:Athymic Nude-Foxn1^nu) were supplied by Harlan (Germantown, N.Y.). Mice were received at 4 weeks of age. All mice were acclimated prior to handling. The mice were housed in microisolator cages (Lab Products, Seaford, Del.) and maintained under specific pathogen-free conditions. The mice were fed Tekland Global Diet® 2920× irradiated laboratory animal diet (Harlan, Indianapolis, Ind.) and autoclaved water was freely available. All procedures were carried out under the institutional guidelines of TGen Drug Development Institutional Animal Care and Use Committee (Protocol #13046).
Female mice were inoculated subcutaneously in the right flank with 0.1 mL of a 50% RPMI/50% Matrigel™ (BD Biosciences, Bedford, Mass.) mixture containing a suspension of Capan-2 tumor cells (approximately 5.0×10^6 cells/mouse). Seven days following inoculation, tumors were measured using calipers and tumor weight was calculated using the animal study management software, Study Director V.2.1.1 (Study Log)^1. Eighty mice with tumor sizes of 101-194 mg were randomized into eight groups of ten mice each by random equilibration with a mean of approximately 140 mg, using Study Director (Day 1). Body weights were recorded when the mice were randomized and were taken twice weekly thereafter in conjunction with tumor measurements. Dosing was performed as described below in Table 1.
All groups were terminated on Day 74. Mice were sacrificed prior to study end if tumor weight exceeded 1500 mg. Upon necropsy, tumors were excised from all animals in all groups and bisected in halves, placed in formalin vials (Azer Scientific/VWR; Franklin Lakes, N.J.) then fixed for approximately 24 hours before transferring to ethanol. Formalin-fixed tissues were embedded in paraffin, processed, and H & E stained.
The following concerns a statistical analysis of tumour weights in the study reported in Example 2. […] Tumour weight and body weights were assessed Day 1 and then twice weekly up to last assessment on Day 74.
Treatments were compared using an analysis of variance (ANOVA) model with fixed factor treatment and tumour weight at Day 1 as a covariate and assuming equal variance for each assessment (Day 1 model without covariate).

[1] = 0-19 days, label number = dose mg/kg, Q3Dx4
[2] = 0-29 days, label number = dose mg/kg, Q3Dx4
[3] = 0-39 days, label number = dose mg/kg, Q3Dx4
[4] = 0-50 days, label number = dose mg/kg, Q3Dx4
[5] = 0-60 days, label number = dose mg/kg, Q3Dx4
[6] = Day 1 (randomisation), label number = dose mg/kg
[7] = Day 4, label number = dose mg/kg
[8] = Day 8, label number = dose mg/kg
[9] = Day 11, label number = dose mg/kg
[10] = Day 16, label number = dose mg/kg
[11] = Day 19, label number = dose mg/kg
[12] = Day 22, label number = dose mg/kg
[13] = Day 25, label number = dose mg/kg
[14] = Day 29, label number = dose mg/kg
[15] = Day 32, label number = dose mg/kg
[16] = Day 36, label number = dose mg/kg
[17] = Day 39, label number = dose mg/kg
[18] = Day 43, label number = dose mg/kg
[19] = Day 46, label number = dose mg/kg
[20] = Day 50, label number = dose mg/kg
[21] = Day 53, label number = dose mg/kg
[22] = Day 57, label number = dose mg/kg
[23] = Day 60, label number = dose mg/kg
[24] = Day 64, label number = dose mg/kg
[25] = Day 67, label number = dose mg/kg
[26] = Day 71, label number = dose mg/kg
[27] = Day 74, label number = dose mg/kg

Nc1ccn([C@@H]2O[C@H](CO)[C@@H](O)C2(F)F)c(=O)n1 [Gemcitabine 5, Gemcitabine]
Eau, 0-19 (average tumour weight = AUC / interval length), Estimate [1]: 173.4 mg
Eau, 0-19, Difference vs Vehicle [1]: -67.6 mg
Eau, 0-29 (average tumour weight = AUC / interval length), Estimate [2]: 195.5 mg
Eau, 0-29, Difference vs Vehicle [2]: -93.6 mg
Eau, 0-39 (average tumour weight = AUC / interval length), Estimate [3]: 231.3 mg
Eau, 0-39, Difference vs Vehicle [3]: -118.1 mg
Eau, 0-50 (average tumour weight = AUC / interval length), Estimate [4]: 292.1 mg
Eau, 0-50, Difference vs Vehicle [4]: -121.2 mg
Eau, 0-60 (average tumour weight = AUC / interval length), Estimate [5]: 349.7 mg
Eau, 0-60, Difference vs Vehicle [5]: -118.4 mg
Consistent statistically significant effect versus Vehicle on tumour weight, up to Day (ANOVA by day): ≤ 36
Eav intervals with statistically significant effects versus Vehicle, up to (ANOVA of Eav): up to 50 days
Tumour weight, Difference vs Vehicle [6]: -0.0 mg
Tumour weight, Estimate [6]: 140.7 mg
Estimate (mg), tumour weight geometric mean (Day 1): 138.6 mg
Ratio vs Vehicle (Day 1): 1.00
Estimate (mg), tumour weight geometric mean (Day 4): 186.7 mg
Tumour weight, Difference vs Vehicle [7]: 14.1 mg
Tumour weight, Estimate [7]: 189.8 mg
Estimate (mg), tumour weight geometric mean (Day 8): 157.0 mg
Ratio vs Vehicle (Day 8): 0.71
Tumour weight, Difference vs Vehicle [8]: -69.0 mg
Tumour weight, Estimate [8]: 161.6 mg
Estimate (mg), tumour weight geometric mean (Day 11): 167.8 mg
Ratio vs Vehicle (Day 11): 0.64
Tumour weight, Difference vs Vehicle [9]: -111.0 mg
Tumour weight, Estimate [9]: 174.2 mg
Estimate (mg), tumour weight geometric mean (Day 16): 172.5 mg
Ratio vs Vehicle (Day 16): 0.63
Tumour weight, Difference vs Vehicle [10]: -116.3 mg
Tumour weight, Estimate [10]: 181.4 mg
Estimate (mg), tumour weight geometric mean (Day 19): 185.1 mg
Ratio vs Vehicle (Day 19): 0.64
Tumour weight, Difference vs Vehicle [11]: -119.5 mg
Tumour weight, Estimate [11]: 194.7 mg
Estimate (mg), tumour weight geometric mean (Day 22): 216.1 mg
Ratio vs Vehicle (Day 22): 0.67
Tumour weight, Difference vs Vehicle [12]: -122.5 mg
Tumour weight, Estimate [12]: 225.0 mg
Estimate (mg), tumour weight geometric mean (Day 25): 233.4 mg
Ratio vs Vehicle (Day 25): 0.64
Tumour weight, Difference vs Vehicle [13]: -157.9 mg
Tumour weight, Estimate [13]: 244.0 mg
Estimate (mg), tumour weight geometric mean (Day 29): 258.9 mg
Ratio vs Vehicle (Day 29): 0.64
Tumour weight, Difference vs Vehicle [14]: -164.9 mg
Tumour weight, Estimate [14]: 273.6 mg
Estimate (mg), tumour weight geometric mean (Day 32): 286.5 mg
Ratio vs Vehicle (Day 32): 0.62
Tumour weight, Difference vs Vehicle [15]: -208.5 mg
Tumour weight, Estimate [15]: 310.1 mg
Estimate (mg), tumour weight geometric mean (Day 36): 324.4 mg
Ratio vs Vehicle (Day 36): 0.68
Tumour weight, Difference vs Vehicle [16]: -190.3 mg
Tumour weight, Estimate [16]: 360.9 mg
Estimate (mg), tumour weight geometric mean (Day 39): 349.9 mg
Ratio vs Vehicle (Day 39): 0.78
Tumour weight, Difference vs Vehicle [17]: -165.4 mg
Tumour weight, Estimate [17]: 389.6 mg
Estimate (mg), tumour weight geometric mean (Day 43): 439.5 mg
Ratio vs Vehicle (Day 43): 0.84
Tumour weight, Difference vs Vehicle [18]: -138.1 mg
Tumour weight, Estimate [18]: 506.6 mg
Estimate (mg), tumour weight geometric mean (Day 46): 460.6 mg
Ratio vs Vehicle (Day 46): 0.86
Tumour weight, Difference vs Vehicle [19]: -107.4 mg
Tumour weight, Estimate [19]: 536.4 mg
Estimate (mg), tumour weight geometric mean (Day 50): 485.0 mg
Ratio vs Vehicle (Day 50): 0.85
Tumour weight, Difference vs Vehicle [20]: -130.4 mg
Tumour weight, Estimate [20]: 573.5 mg
Estimate (mg), tumour weight geometric mean (Day 53): 530.7 mg
Ratio vs Vehicle (Day 53): 0.93
Tumour weight, Difference vs Vehicle [21]: -61.2 mg
Tumour weight, Estimate [21]: 653.0 mg
Estimate (mg), tumour weight geometric mean (Day 57): 516.6 mg
Ratio vs Vehicle (Day 57): 0.90
Tumour weight, Difference vs Vehicle [22]: -144.3 mg
Tumour weight, Estimate [22]: 626.6 mg
Estimate (mg), tumour weight geometric mean (Day 60): 539.6 mg
Ratio vs Vehicle (Day 60): 1.00
Tumour weight, Difference vs Vehicle [23]: -84.5 mg
Tumour weight, Estimate [23]: 680.5 mg
Estimate (mg), tumour weight geometric mean (Day 64): 633.3 mg
Tumour weight, Difference vs Vehicle [24]: 76.1 mg
Tumour weight, Estimate [24]: 869.5 mg
Estimate (mg), tumour weight geometric mean (Day 67): 695.7 mg
Tumour weight, Difference vs Vehicle [25]: 85.1 mg
Tumour weight, Estimate [25]: 952.8 mg
Estimate (mg), tumour weight geometric mean (Day 71): 746.4 mg
Tumour weight, Difference vs Vehicle [26]: 54.2 mg
Tumour weight, Estimate [26]: 1078.5 mg
Estimate (mg), tumour weight geometric mean (Day 74): 746.3 mg
Ratio vs Vehicle (Day 74): 1.33
Tumour weight, Difference vs Vehicle [27]: 157.2 mg
Tumour weight, Estimate [27]: 1009.1 mg
Estimated differences vs Vehicle in growth rates (exponential model y=C*exp(a*t), t in days, data up to 60 days, label number = dose mg/kg): −0.0042
Estimated differences between active treatments in growth rates, vs G-B 560 (exponential model, data up to 60 days, contrast vs G-Block 560 mg/kg alone): −0.0015
